Drawing on patent US20100168143A1, “QUINAZOLINE DERIVATIVES” (ASTRAZENECA AB, priority 2006, published 2010), this text covers EC50 and IC50 for three compounds.

A value given as a limit tells only on which side of the number the result lay.

Experiment [1] deals with phosphohistone H3 levels in drug-resistant MCF7-ADR human breast tumour cells. Nature of the experiment: In vitro drug-resistant cell phenotype and substrate phosphorylation assay (MCF7-ADR). It is filed as cell-based. Conditions: NCI/ADR-RES, 24 hours of treatment, read-out: EC50 for inhibition of phosphohistone H3 levels. The procedure: (d) In Vitro Drug-Resistant Cell Phenotype and Substrate Phosphorylation Assay.
This assay is used to determine the cellular effects of compounds on drug-resistant MCF7-ADR human breast tumour cells in vitro.
Compounds typically cause inhibition of levels of phosphohistone H3 and an increase in the nuclear area of treated cells.
0.8×10^4 MCF7-ADR cells per well were plated in 100 μl DMEM media (containing 10% FCS (foetal calf serum) and 1% glutamine) in costar 96 well plates and left overnight at 37° C. and 5% CO2 to adhere.
All other procedures are identical to those for the above assay using SW620 cells.
The compounds of the invention generally have EC50 values for inhibition of phosphohistone H3 levels of […], particularly 0.5 nM to 1 μM and more particularly 0.5 nM to 0.5 μM.

For a further experiment, the target named is aurora B kinase (Homo sapiens, UniProt Q96GD4). As to the kind of experiment: In vitro aurora B kinase inhibition test. Type of experiment: biochemical. The settings on record: aurora B-INCENP enzyme; 33P-ATP filter assay, 60 minutes; read-out: IC50 (50% inhibition of enzyme activity), aurora B. The source says: (b) In Vitro Aurora B Kinase Inhibition Test
This assay determines the ability of a test compound to inhibit serine-threonine kinase activity. DNA encoding aurora B may be obtained by total gene synthesis or by cloning. This DNA may then be expressed in a suitable expression system to obtain polypeptide with serine-threonine kinase activity. In the case of aurora B, the coding sequence was isolated from cDNA by polymerase chain reaction (PCR) and cloned into the pFastBac system in a manner similar to that described above for aurora A (i.e. to direct expression of a 6-histidine tagged aurora B protein).
For the large scale expression of aurora B kinase activity, Sf21 insect cells were grown at 28° C. in TC100 medium supplemented with 10% foetal calf serum (Viralex) and 0.2% F68 Pluronic (Sigma) on a Wheaton roller rig at 3 r.p.m. When the cell density reached 1.2×10^6 cells ml^−1 they were infected with plaque-pure aurora B recombinant virus at a multiplicity of infection of 1 and harvested 48 hours later. All subsequent purification steps were performed at 4° C. […]

Sequence of aurora B kinase (Q96GD4 whole entry): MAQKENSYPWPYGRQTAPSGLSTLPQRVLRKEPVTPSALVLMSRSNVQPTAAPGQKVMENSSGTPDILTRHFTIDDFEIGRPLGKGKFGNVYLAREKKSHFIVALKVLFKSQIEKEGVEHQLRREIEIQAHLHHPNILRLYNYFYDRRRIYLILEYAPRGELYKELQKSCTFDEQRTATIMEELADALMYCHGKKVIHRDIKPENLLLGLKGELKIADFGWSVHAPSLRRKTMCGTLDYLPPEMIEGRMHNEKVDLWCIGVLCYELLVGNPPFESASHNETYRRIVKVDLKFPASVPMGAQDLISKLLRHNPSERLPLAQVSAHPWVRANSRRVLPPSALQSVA
Sequence of aurora B kinase (Q9NQS7 826-918 partner limits assumed): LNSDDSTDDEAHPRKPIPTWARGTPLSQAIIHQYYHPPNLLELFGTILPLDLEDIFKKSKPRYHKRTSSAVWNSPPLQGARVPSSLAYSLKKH

For the compound `COc1cc(OC[C@H]2CCCN2)c2c(Nc3cnn(CC(=O)Nc4cccc(F)c4F)c3)ncnc2c1` [Prior art compound (I), reference compound], the EC50 in experiment [1] was determined as 120 nM.
As to `CCOc1cc(OC[C@H]2CCCCN2)c2c(Nc3cnn(CC(=O)Nc4cccc(F)c4F)c3)ncnc2c1` [compound 1], the IC50 on aurora B kinase stood at 1.4 nM. Also, the 50% effective concentration (EC50) in experiment [1] was less than 1 nM.
For `COc1cc(OC[C@H]2CCCCN2)c2c(Nc3cnn(CC(=O)Nc4cccc(F)c4F)c3)ncnc2c1` [compound 2, N-(2,3-difluorophenyl)-2-[4-({7-methoxy-5-[(2R)-piperidin-2-ylmethoxy]quinazolin-4-yl}amino)-1H-pyrazol-1-yl]acetamide], the IC50 on aurora B kinase amounted to 1.4 nM. The concentration for a half-maximal effect (EC50) in experiment [1] was 20 nM.

Usually EC50 stands for the concentration that produces a half-maximal response. The term IC50 denotes the concentration at which inhibition is half-maximal.
